Earlier results on one substance are cited in patent US4316892A, “2,6-C-Dimethyltyrosine^1 -D-amino acid^2 -ε-amino caproic and γ aminobutyric acid^5 derivatives of methionine enkephalin” (G. D. Searle & Co., priority 1980, dated 1982).

For series [1] the following is noted: injected directly into the brain of the rat; Belluzi et al.
The next series concerns brain opiate receptor. To be noted: partially purified brain opiate receptor; Bradbury et al.
For series [2] the following is noted: bioassays for opiate activity.

As to methionine enkephalin, the analgesic activity result in series [1] is on record as “weak, fleeting analgesic activity”. The “binding to brain opiate receptor sites” value with brain opiate receptor is reported as “binds stereospecifically”. For the same substance, the opiate activity entry in series [2] was “highly active”.
